Laboratory results from patent US11236303B2, “CD34+CD41DIM megakaryocytes progenitors and uses thereof for producing proplatelet-bearing MKs and/or platelets” (INSTITUT NATIONAL DE LA SANTE ET DE LA RECHERCHE MEDICALE …, priority 2015, dated 2022).
Several values for one entry are separate records, joined by “and”; a condition that tells them apart may be missing. Identical values can stand only once. Blank lines part the entries; values can stand above or below the compound they belong to.

Legend:
Assay type in all cases: cell-based, human
[1] = test system: peripheral blood CD34+ cells; assay: Two-step MK differentiation culture: level of proliferation (viable cell count)
Protocol: (§1) CD34^+ cells were seeded in 48-well plates at a density of 4×10^4 per mL in StemSpan SFEM medium supplemented with 20 ng/mL human LDL and CC220 (1×), a cocktail of cytokines containing SCF, TPO, IL-6 and IL-9 (all from Stemcell Technologies), with or without addition of 1 μM SR1 (Cellagen Technology, San Diego, Calif.) (FIG. 1A). On day 7, the cells were harvested, washed and seeded at 5×10^4/mL in StemSpan SFEM medium containing 30 ng/mL TPO with or without 1 μM SR1 for an additional 7 days. The cultures were incubated at 37° C. under normoxic conditions and 5% CO2. On days 7 and 10 of culture, the cells were counted, their viability was measured by propidium iodide exclusion in an automatic cell counter (ADAM, Digital-Bio, Korea) and the expression of CD34, CD41 and CD42b was analyzed in a Gallios flow cytometer using Kaluza software (Beckman Coulter, Villepinte, France). In some experiments, SR1 was replaced by the AhR agonist FICZ (Enzo life sciences, Villeurbane, France) added at 0.2 μM.

[2] = test system: peripheral blood CD34+ cells; assay: CD34/CD41 expression by flow cytometry in MK differentiation culture
Protocol: as §1
(§2) In a second protocol, CD34^+ cells were cultured in the presence of mesenchymal stromal cells (MSCs) isolated from human bone marrow (Guilloton F et al., Blood. 2012; 119:2556-2567). MSCs were maintained in α-MEM medium supplemented with 10% fetal bovine serum (Invitrogen, Cergy Pontoise, France) and 2 ng/mL recombinant human (rh) FGF2 (Peprotech, Rocky Hill, N.J.). CD34^+ cells were added to a confluent layer of MSCs at a density of 4×10^4/mL in 48-well plates in StemSpan SFEM medium supplemented with 20 ng/mL human LDL and CC220. On day 7, the cells in suspension were harvested, washed and co-cultured at 5×10^4/mL on a new layer of confluent MSCs in StemSpan SFEM medium containing 30 ng/mL TPO for an additional 7 days (FIG. 5A).
Surface Markers. Cells were analyzed by flow cytometry (Gallios, Beckman Coulter, France) after labeling with anti-CD34-PE-Cy7 (Beckman Coulter, Fullerton, Calif.), anti-CD41-Alexa-488 (ALMA.17), anti-CD42c-PE (RAM.1) and anti-CD42d-Alexa-647 (V.1) mAbs for 30 min at 4° C. The cells were then washed and resuspended in PBS containing 7-AAD (1/50). The acquired data were analyzed with Kaluza software.

[3] = test system: peripheral blood CD34+ cells; assay: Quantification of proplatelet-bearing MKs in two-step culture of CD34+ cells
Protocol: as §1
(§3) The percentage of MKs extending proplatelets was determined in the culture wells by phase-contrast microscopy. In each culture, at least 100 MKs were analyzed and images were acquired using a Zeiss Axio Vert.A1 microscope with a 20× objective (Marly-le-Roi, France).

[4] = test system: peripheral blood CD34+ cells; assay: Determination of the number of platelets produced per seeded cell, two-step culture of CD34+ cells
Protocol: as §1
as §2, with “On day 7, the cells in suspension were harvested, washed and co-cultured at 5×10^4/mL on a new layer of confluent MSCs in StemSpan SFEM medium containing 30 ng/mL TPO for an additional 7 days (FIG. 5A).” left out
CD34^+ cells cultured for 7 days in the presence of CC220 (FIGS. 1A and 5A) or CD34/CD41 sorted cells (FIGS. 4A and 6A) were seeded in a medium containing TPO. […] CD41/CD42c double positive events, having the same scattering properties as washed blood platelets, were counted as platelet-like particles and the number of particles per seeded cell, at day 7 or 10 following experiments, was determined.

CYP1B1 = CYP1B1 mRNA expression by qPCR (downstream target of AhR)
Protocol: CD41/61 cells were obtained on day 7 or 10 of culture using the antibody ALMA.17 and magnetic beads (EasySep® “Do-It-Yourself” Selection Kit, StemCell Technologies). Total RNA were extracted using an RNeasy® Mini kit (QIAGEN) following manufacturer's instructions. Quantity and quality of total RNA for all samples were evaluated by measuring OD at 260 nm and concentration was adjusted at 50 ng/ml. The RNA samples were stored at −80° C. until use. qRT-PCR was applied under standard conditions using the SYBR Green Master Mix kit on the ABI Prism 7900 Sequence Detection System (PerkinElmer-Cetus, Courtaboeuf, France). The primers for genes were chosen with the assistance of the Oligo 6.0 program (National Biosciences, Plymouth, Minn.) and have been previously described (Bieche I. et al., Pharmacogenetics and genomics. 2007; 17:731-742).

CD34+CD41dim cells [5] = assay: Quantification of proplatelet-bearing MKs from sorted CD34+CD41dim cells
Protocol: (§4) The cells recovered on day 10 were incubated with a mixture of Alexa-488-conjugated anti-CD41 (ALMA.17) and PE-Cy7-conjugated anti-CD34 mAbs (BD Biosciences) for 30 min at 4° C. They were then washed in PBS-EDTA and incubated for 30 min in PBS containing 7-AAD (1/50) to select viable cells. The morphologic and sorting gates were determined by FMO (fluorescence minus one) analysis and megakaryocytic precursors were sorted at 500 cells/s according to their CD34/CD41 expression using a FACS Aria II flow cytometer (Becton Dickinson, Mountain View, Calif.) equipped with a 50 μm nozzle and two argon lasers operating at 500 mW and tuned to 488 and 360 nm, respectively (Coherent Radiation, Palo Alto, Calif.). The sorted CD34^+CD41^dim and CD34 CD41^+ cells were then counted and seeded at 4×10^4/mL in 48-well plates in StemSpan medium containing TPO with or without SR1 for 7 days (FIG. 4A).
as §3

CD34+CD41dim cells [6] = assay: Number of platelet-like elements produced per seeded sorted CD34+CD41dim cell
Protocol: as §4, with “4A). CD34^+ cells cultured for 7 days in the presence of CC220 (FIGS. 1A and 5A) or CD34/CD41 sorted cells (FIGS. 4A and 6A) were seeded in a medium containing TPO. […] CD41/CD42c double positive events, having the same scattering properties as washed blood platelets, were counted as platelet-like particles and the number of particles per seeded cell, at day 7 or 10 following experiments, was determined.” for “4A).”

[7] = SR1-derived CD34+CD41dim cells sorted day 10, 7 days in TPO + SR1 (5 μM)

CYP1B1 expression (CYP1B1; day 7 culture, SR1 treated cells, control 579.8±40.8, n=3): 2.5±0.8 arbitrary units
SMILES: CC(C)n1cnc2c(NCCc3ccc(O)cc3)nc(-c3csc4ccccc34)nc21 [SR1, 4-(2-(2-(benzo[b]thiophen-3-yl)-9-isopropyl-9H-purin-6-ylamino)ethyl)phenol]
fold expansion of the total nucleated cells ([1]; day 7, over input of CD34+ cells on day 0, with SR1, mean±SEM, n=8): 4.2±1.2 fold
increase in number of cells from day 7 to day 10 ([1]; day 7 to day 10, SR1-treated cultures): 2.5 times
decrease in CD34 positivity ([2]; day 7, expansion step with CC220, SR1-treated): 8.3%
CD34+CD41+ cells, % of total population ([2]; day 7, presence of SR1): 68.9±1.8% and 69%
CD34+CD41- cells, % of total population ([2]; day 7, presence of SR1): 22.4±1.5%
CD34-CD41+ cells, % of total population ([2]; day 7, presence of SR1): 3.6±0.3%
CD34+CD41+ cells, % of the cells ([2]; day 10, SR1-treated cultures): 55.1±4.9% and 55%
CD34+CD41dim cells (region R2), % of total cells ([2]; day 10, SR1 treatment, mean±SEM in 8 experiments): 36.8±1.9%
proportion of CD34+ cells ([2]; day 10, after passage in TPO alone, SR1 treatment): 71.6%
CD34-CD41+ cells, % of the cells ([2]; day 10, presence of SR1): 26.7±4.5%
percentage of MKs extending proplatelets ([3]; day 14, 1 μM SR1, CC220 day 0-7 then TPO day 7-14): 34.6±2.1%
number of platelet-like elements per cell seeded on day 7 ([4]; day 14, 1 μM SR1): 20.72±5.19 platelets/seeded cell
increase in number of platelet particles after addition of SR1 versus control ([4]; day 14, per cell seeded on day 7): about 3 fold
percentage of MKs extending proplatelets (CD34+CD41dim cells [5]; MSC-derived CD34+CD41dim cells sorted day 10, 7 days in TPO + 5 μM SR1, n=4): 49.5±10.5%
percentage of MKs extending proplatelets (CD34+CD41dim cells [5]; [7]): 91.0±2.4%
proportion of the MKs produced that are proplatelet-bearing MKs (CD34+CD41dim cells [5]; from seeded CD34+CD41dim cells, summary statement): About 90%
number of platelet-like elements per seeded cell (CD34+CD41dim cells [6]; [7]): 52.1±8.8 platelets/seeded cell and 52.06±8.79 platelets/seeded cell
enhanced production of platelet-like elements with SR1 as compared to without SR1 (CD34+CD41dim cells [6]; sorted CD34+CD41dim cells, 7 days in TPO): 6.8 fold

effect on the MSC-induced decrease in CYP1B1 transcripts (CYP1B1; MSC co-culture with addition of FICZ, day 10): reversed
SMILES: O=Cc1c2[nH]c3ccccc3c2cc2[nH]c3ccccc3c12 [FICZ]
proportion of CD34+CD41dim cells ([2]; MSC co-culture with addition of FICZ, data not shown): reduced
proplatelet extension of MKs ([3]; SR1 replaced by FICZ (0.2 μM)): dramatic decrease
number of platelet-like elements per cell seeded on day 7 ([4]; day 14, SR1 replaced by 0.2 μM FICZ): 0.20±0.04 platelets/seeded cell
